Measurements taken from US5698544A, “Cephem compound, process for producing the compound, and antimicrobial composition containing the same” (Otsuka Kagaku Kabushiki Kaisha, priority 1994, dated 1997).
Values after ≈ are worked out from the molar mass of the structure shown.

Columns and labels:
S. marcescens IFO-12648 = experiment: Agar plate dilution assay (MIC), S. marcescens IFO-12648; format: cell-based; conditions: Serratia marcescens, IFO12648, inoculum size 10^6 cells/ml
MRSA 92-1044 = experiment: Agar plate dilution assay (MIC), MRSA 92-1044; format: cell-based, methicillin-resistant Staphylococcus aureus; conditions: Staphylococcus aureus, inoculum size 10^6 cells/ml
S. aureus FDA 209-P = experiment: Agar plate dilution assay (MIC), S. aureus FDA 209-P; format: cell-based; conditions: Staphylococcus aureus, FDA209, inoculum size 10^6 cells/ml
E. faecalis ATCC-21212 = experiment: Agar plate dilution assay (MIC), E. faecalis ATCC-21212; format: cell-based; conditions: Enterococcus faecalis, ATCC21212, inoculum size 10^6 cells/ml
E. coli NIHJ JC-2 = experiment: Agar plate dilution assay (MIC), E. coli NIHJ JC-2; format: cell-based; conditions: Escherichia coli, NIHJJC2, inoculum size 10^6 cells/ml

| SMILES | MIC (S. marcescens IFO-12648) [µg/mL] | MIC (MRSA 92-1044) [µg/mL] | MIC (S. aureus FDA 209-P) [µg/mL] | MIC (E. faecalis ATCC-21212) [µg/mL] | MIC (E. coli NIHJ JC-2) [µg/mL] |
| --- | --- | --- | --- | --- | --- |
| C[N+](C)(C)CC[n+]1ccc(SC=CC2=C(C(=O)O)N3C(=O)C(NC(=O)C(=NOC4CCCC4)c4csc(N)n4)C3SC2)cc1 (centres unmarked) [(a)] | 3.13 | 6.25 | 0.39 | 0.39 | 0.39 |
| CC(=O)C[N+](C)(C)CC[n+]1ccc(SC=CC2=C(C(=O)O)N3C(=O)C(NC(=O)C(=NO)c4csc(N)n4)C3SC2)cc1 (centres unmarked) [(d)] | 0.2 | 1.56 | 0.2 | 0.2 | 0.025 |
| C[N+](C)(CC[n+]1ccc(SC=CC2=C(C(=O)O)N3C(=O)C(NC(=O)C(=NO)c4csc(N)n4)C3SC2)cc1)CC(N)=O (centres unmarked) [(c)] | 0.1 | 1.56 | 0.1 | 0.1 | 0.025 |
| C[N+](C)(CCO)CC[n+]1ccc(SC=CC2=C(C(=O)O)N3C(=O)C(NC(=O)C(=NO)c4csc(N)n4)C3SC2)cc1 (centres unmarked) [(e)] | 0.1 | 1.56 | 0.1 | 0.1 | 0.05 |
| C[N+](C)(C)CC[n+]1ccc(SC=CC2=C(C(=O)O)N3C(=O)C(NC(=O)C(=NO)c4csc(N)n4)C3SC2)cc1 (centres unmarked) [(b)] | 0.1 | 1.56 | 0.1 | 0.1 | 0.05 |
| CO[C@@]1(NC(=O)CSC(F)F)C(=O)N2C(C(=O)O)=C(CSc3nnnn3CCO)CO[C@@H]21 [FMOX, flomoxef, reference compound] | 0.2 (≈ 0.403 µM) | > 100 | 0.2 (≈ 0.403 µM) | 100 (≈ 201 µM) | 0.05 (≈ 0.101 µM) |
| C[N+]1(CC[n+]2ccc(SC=CC3=C(C(=O)O)N4C(=O)C(NC(=O)C(=NO)c5csc(N)n5)C4SC3)cc2)CCOCC1 (centres unmarked) [(f)] | 0.1 | 1.56 | 0.1 | 0.2 | 0.025 |
